{"source": "patent US20250144095A1", "about": "“COMPOSITIONS AND METHODS FOR TREATMENT OF CONNECTIVE TISSUE DISORDERS” (The Johns Hopkins University, priority 2022, published 2025)", "type_in_all_cases": "in vivo", "key": {"[1]": {"tested_on": "p-ERK1/2", "experiment": "Western blot of p-ERK1/2 in proximal descending thoracic aorta of treated Col3a1^G938D mice", "settings": "normalized to β-actin, vs untreated", "procedure": "(§1) Protein was extracted using an automatic bead homogenizer in conjunction with a Protein Extraction Kit (Full Moon Biosystems). All protein lysis buffers contained both PhosSTOP and cOmplete™, Mini, EDTA-free Protease Inhibitor Cocktail (Roche). Western blotting was performed using LI-COR buffer and species appropriate secondary antibodies conjugated to IR-dye700 or IRdye-800 (LI-COR Biosciences), according to the manufacturer's guidelines and analyzed using LI-COR Odyssey. The following primary antibodies were used: anti-β-Actin (8H10D10) (Cell Signaling Technology, 3700), anti-phospho ERK1/2 (Cell Signaling Technology, 4370), anti-PKCβ (phospho S660) (Abcam, 75837), anti-Endothelin-1 (TR.ET.48.5) (Thermo Fisher Scientific, MA3005), anti-Endothelin-1 (TR.ET.48.5) (Abcam, 2786).\n(§2) pERK and pPKC amounts were normalized to j-actin as opposed to total ERK or total PKC for a variety of practical reasons. First, it is the amount of phosphorylated protein, and not the ratio of phosphorylated to unphosphorylated protein, that drives cellular responses. Second, we are unaware of any pathophysiologic context where the amount of unphosphorylated protein is limiting (i.e. always in excess). […]"}, "[2]": {"tested_on": "Col3a1^G938D mice", "experiment": "Survival drug trial in Col3a1^G938D/+ (vEDS) mice, Kaplan-Meier", "description": "All mice were maintained on a C57BL/6J background (#000664, The Jackson Laboratory). ET1^fl/fl f mice were obtained from RIKEN (RBRC06322). Tie2-Cre mice and Sm22-Cre mice were obtained from the Jackson Laboratory (#004128. #017491). All mice were genotyped according to published protocols.\nRestriction enzymes were used to detect the presence or absence of the Col3a1 mutation as previously described. The G938D mutation leads to the gain of a BamHI cut site (R3136S, New England Biolabs). All mice found dead were assessed for cause of death by necropsy, noting in particular hemothorax and hemoperitoneum.\nFor drug trials in the Col3a1^G938D/+ mice, mice were initiated on medication at weaning and continued until 2 months of age. Cobimetinib (GDC-0973/RO551404, Active Biochem) was dissolved in drinking water and filtered to reach a final concentration of 0.02 g/L giving an estimated dose of 2 mg/kg/day. Ruboxistaurin (LY333531 HCl, Selleck Chemicals) was mixed with powdered food (LabDiet) to give a concentration of 0.1 mg/g giving an estimated dose of 8 mg/kg/day. […]\nBy design, each treatment trial included contemporaneous control (untreated) mice. […] All p-values calculated by log-rank comparisons (using Prism) are reported as unadjusted p-values, given the interdependence of many of the drug mechanisms. […]"}, "[3]": {"tested_on": "p-PKC", "experiment": "Western blot of p-PKC in proximal descending thoracic aorta of treated Col3a1^G938D mice", "settings": "normalized to β-actin, vs untreated", "procedure": "as §1, §2"}, "[4]": {"tested_on": "Endothelin-1", "experiment": "Immunofluorescence of Endothelin-1 in descending thoracic aorta of treated Col3a1^G938D/+ mice", "settings": "descending thoracic aorta of 8-week-old Col3a1^G938D/+ mice, treated from weaning; cobimetinib est. 2 mg/kg/day, ruboxistaurin est. 8 mg/kg/day", "procedure": "Mice were euthanized by isoflurane inhalation and the left common iliac artery was transected to allow for drainage. PBS (pH 7.4) and PBS containing 4% paraformaldehyde (PFA) was flushed through the left ventricle. The heart and thoracic aorta were removed en bloc and fixed in 4% PFA overnight at 4° C. Aortas were submitted for paraffin fixation and longitudinal sections 5 micrometers thick were mounted on glass slides and stained with hematoxylin & eosin (HE), Verhoeff-van Giesen (VVG), Masson's Trichrome, or Picrosirius red (PSR). Slides were imaged at 20× and 40× magnification using a Nikon Eclipse E400 microscope. Collagen content was determined by polarized PSR intensity (31) and elastin breaks were counted by a researcher blinded to genotype and treatment arm using only VVG stained sections where elastin breaks were clearly visualized.\nFor immunofluorescence, slides were incubated in antigen retrieval solution for 1 minute in a pressure cooker. Sections were incubated with 1% BSA for one hour at room temperature. Primary antibodies were diluted at 1:200 in 1% BSA and incubated overnight at 4° C. Three consecutive washes were performed prior to incubation with anti-rabbit secondary antibodies conjugated to Alexa Fluor 488 (Invitrogen A-11039) or anti-mouse secondary antibodies conjugated to Alexa Fluor 594 (Invitrogen R37119) at 1:200 for 1 hour at room temperature. […]"}}}
{"smiles": "COc1ccccc1Oc1c(NS(=O)(=O)c2ccc(C(C)(C)C)cc2)nc(-c2ncccn2)nc1OCCO", "note": "[bosentan, Bosentan]", "values": [{"measurement": "p-ERK1/2 level in aorta (in words)", "setting": "[1]", "result": "not p-ERK1/2"}, {"measurement": "effect on survival (in words)", "setting": "[2]; Col3a1^G938D/+ mice vs untreated, Log-Rank (Mantel-Cox)", "result": "moderately but significantly improved survival"}, {"measurement": "mice surviving to the end of the trial", "setting": "[2]; vEDS (Col3a1^G938D) mice, drug from weaning (P21), followed 45 days, in food, estimated 100 mg/kg/day, untreated 46%", "result": 70, "unit": "%"}, {"measurement": "p-PKC level in aorta (in words)", "setting": "[3]", "result": "marked downregulation"}]}
{"smiles": "O=C(c1ccc(F)c(F)c1Nc1ccc(I)cc1F)N1CC(O)([C@@H]2CCCCN2)C1", "note": "[cobimetinib, Cobimetinib]", "values": [{"measurement": "ET1 protein levels in aorta (in words)", "setting": "[4]", "result": "attenuated"}]}
{"smiles": "CN(C)C[C@@H]1CCn2cc(c3ccccc32)C2=C(C(=O)NC2=O)c2cn(c3ccccc23)CCO1", "note": "[ruboxistaurin, Ruboxistaurin]", "values": [{"measurement": "ET1 protein levels in aorta (in words)", "setting": "[4]", "result": "attenuated"}]}
